# Test results reported in patent US20190000868A1, “COMPOSITIONS COMPRISING 4'-O-GLUCURONIDE EPICATECHIN AND METHODS OF MAKING AND USING SUCH COMPOSITIONS” (NESTEC S.A., priority 2015, published 2019).
# Test system: endothelial nitric oxide synthase
# Assay: eNOS phosphorylation (western blot) in isolated aortic rat rings
# Assay type: cell-based
# Design: dose or concentration left out as unconfirmed
# Settings: isolated thoracic aortic rings of male Wistar rats, incubated 1 h, FIG. 4
# Description: Comparative experiments were conducted on the expression of endothelial nitric oxide synthase in isolated aortic rat rings.
# Thoracic aortas were obtained from male adults Wistar rats after euthanasia. Each aorta was carefully dissected and harvested cleaned of excess tissue and cut into three equal segments, approximately 7 mm long. All aortic rings were pre-incubated for 30 min in Krebs solution (20 mM Hepes buffer, pH 7.4, containing 119 mM NaCl, 4.7 mM KCl, 1 mM MgSO4, 0.4 mM NaH2PO4, 0.15 mM Na2HPO4, 5 mM NaHCO3, 1.25 mM CaCl2, 5.5 mM glucose) aerated with 95% O2 and 5% CO2 at 37° C. and then incubated with vehicle (DMSO 1%) or the different metabolites for 1 h. Metabolites were first dissolved in DMSO 1% and tested in a final concentration […]. At the end of the incubation period aortic rings were frozen at −70° C. until the homogenate preparation. Homogenates for western blot and western blot determinations were carried out by the regular procedures and phosphorylation level of endothelial nitric oxide synthase was evaluated.
compound,measurement,value
"O=C(O)[C@H]1O[C@@H](Oc2ccc([C@H]3Oc4cc(O)cc(O)c4C[C@H]3O)cc2O)[C@H](O)[C@@H](O)[C@@H]1O [4′-O-glucuronide epicatechins, 4′-O-glucuronide epicatechin]",phosphorylation level of endothelial nitric oxide synthase (p-eNOS vs eNOS total),increased eNOS phosphorylation relative to control and chemically similar epicatechins
